Data from ChEMBL document CHEMBL1140284, “A three-dimensional pharmacophore model for 5-hydroxytryptamine6 (5-HT6) receptor antagonists” (J Med Chem, 2005).

What follows are molecules tested against 5-hydroxytryptamine receptor 6 (Homo sapiens, UniProt P50406) (assay: Binding affinity for human 5-hydroxytryptamine 6 receptor).
Chain of 5-hydroxytryptamine receptor 6 (P50406 whole entry): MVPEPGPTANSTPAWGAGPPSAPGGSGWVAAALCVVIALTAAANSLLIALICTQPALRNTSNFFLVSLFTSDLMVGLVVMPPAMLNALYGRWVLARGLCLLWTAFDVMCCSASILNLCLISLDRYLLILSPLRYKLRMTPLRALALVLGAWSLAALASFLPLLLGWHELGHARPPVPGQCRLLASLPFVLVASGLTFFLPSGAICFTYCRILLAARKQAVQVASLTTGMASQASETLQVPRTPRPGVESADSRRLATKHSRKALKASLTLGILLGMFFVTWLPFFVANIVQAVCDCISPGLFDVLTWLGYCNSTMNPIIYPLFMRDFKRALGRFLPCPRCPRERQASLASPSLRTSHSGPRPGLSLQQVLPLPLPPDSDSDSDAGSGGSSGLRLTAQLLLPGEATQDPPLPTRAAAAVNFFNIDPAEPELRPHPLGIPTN

SMILES | Ki
NCc1cn(S(=O)(=O)c2ccccc2)c2ccccc12 | 3.16 nM
COc1cc(N)cc(NS(=O)(=O)c2ccc(N)cc2)c1 | 39.8 nM
O=S(=O)(Nc1ccc2ccn(CCN3CCCC3)c2c1)c1c(Cl)nc2sccn12 | 50.1 nM
COc1cccc2c(CCN)cn(S(=O)(=O)c3ccc4ccccc4c3)c12 | 5.01 nM
CNc1cc(NS(=O)(=O)c2ccc(N)cc2)cc(NC)n1 | 15.8 nM
CC[N+](C)(CC)CCc1cn(S(=O)(=O)c2ccc(NC(C)=O)cc2)c2ccc(OC)cc12 | 251 nM
Nc1ccc(S(=O)(=O)Nc2cc(N)nc(Br)c2)cc1 | 50.1 nM
CSc1nc2ccccn2c(=N)c1S(=O)(=O)c1ccccc1 | 3.98 nM
Nc1ccc(S(=O)(=O)Nc2ccc3cc[nH]c3c2)cc1 | 1260 nM
Cc1c(S(=O)(=O)Nc2ccc3ncc(N4CCN(C)CC4)cc3c2)sc2ccc(Cl)cc12 | 79.4 nM
O=S(=O)(c1cccc2ccccc12)n1ccc2ccc(C3=CCN4CCCC4C3)cc21 (stereo unspecified) | 1.26 nM
COc1ccc2[nH]c(-c3ccccc3)c(CCN(C)C)c2c1 | 50.1 nM
CCOC(=O)c1[nH]c2ccccc2c1CCN | 20 nM
Nc1ccc(S(=O)(=O)n2c3c(c4ccccc42)CCCC3)cc1 | 31.6 nM
COc1cccc(-c2noc(-c3[nH]c4ccccc4c3CCN)n2)c1 | 1.26 nM
NCCc1c[nH]c2ccc(NS(=O)(=O)c3ccc4c(Cl)cccc4c3)cc12 | 0.2 nM

SMILES | Ki
CN(C)CCc1cn(S(=O)(=O)c2ccccc2)c2ccccc12 | 3.16 nM
O=S(=O)(c1ccccc1)c1cc2c(N3CCNCC3)cccc2[nH]1 | 0.126 nM
COc1ccc2c(c1)c(CCN(C)C)cn2S(=O)(=O)c1ccccc1 | 2.51 nM
O=S(=O)(Nc1ccc2c(ccn2CCCN2CCCCC2)c1)c1c(Cl)nc2sccn12 | 1000 nM
CN(C)CCn1ccc2cc(NS(=O)(=O)c3c(Cl)nc4sccn34)ccc21 | 2 nM
Nc1ccc(S(=O)(=O)Nc2cccc(N)c2)cc1 | 631 nM
NCc1cn(S(=O)(=O)c2ccc(N)cc2)c2ccccc12 | 6.31 nM
O=S(=O)(c1ccc2ccccc2c1)n1ccc2ccc(N3CCN4C=CCC4C3)cc21 (stereo unspecified) | 0.2 nM
COc1ccc2c(c1)c(CCN)cn2S(=O)(=O)c1cccc2ccccc12 | 0.794 nM
Nc1ccc(S(=O)(=O)c2cc(Br)nc(Br)c2)cc1 | 50.1 nM
Cc1ccc(S(=O)(=O)n2cc3c4c(cccc42)[C@H](O)[C@@H](N(C)C)C3)cc1 | 7.94 nM
CON1CCN(c2ccc(S(=O)(=O)c3cccc4ccccc34)cc2)CC1 | 0.126 nM
COc1ccc(NS(=O)(=O)c2cccc(I)c2)cc1N1CCNCC1 | 0.794 nM
Nc1ccc(S(=O)(=O)Nc2cccc3[nH]ccc23)cc1 | 63.1 nM
Cc1cn(S(=O)(=O)c2ccc(N)cc2)c2ccccc12 | 12.6 nM
